{"source": "patent US20060019883A1", "about": "“Use of cyclin D1 inhibitors” (priority 2003, published 2006)", "system": "ER-positive breast cancer", "experiment": "Randomised clinical trial: 2 years of tamoxifen treatment or no adjuvant treatment, breast cancer specific survival in relation to cyclin D1", "format": "in vivo, patients", "conditions": "for Median survival time of deceased patients / Mortality rate: tumours with >90% ER positive cells", "description": "The breast cancer material used in this study initially included 168 post-menopausal (>55 years old) patients with small (T0-T1) node-negative (N0) tumours. […] Data regarding breast cancer specific survival was obtained from the Swedish Cancer Registry (2002) resulting in a mean follow-up time of 18 years (range 15-22 years). Representative parts of the tumours were assembled in a tissue array, sectioned and immunohistochemically stained for ER (antibodies M7047 from Dako, Denmark, diluted 1/200) and cyclin D1 (M7155, Dako, Denmark, 1/100). […] The alternative model is that cyclin D1 could sequester cdk-inhibitors thereby effecting the G1/S control and tamoxifen response.\nE: Cumulative total survival in the patient group of cyclin D1 high breast cancer subdivided according to tamoxifen treatment or nor treatment.", "key": {"[1]": {"conditions": "High CD1 and tamoxifen treatment"}, "[2]": {"conditions": "Moderate/low CD1 and tamoxifen treatment"}}, "note": "“Also recorded” adds a separate entry of the source."}
{"smiles": "CC/C(=C(\\c1ccccc1)c1ccc(OCCN(C)C)cc1)c1ccccc1", "note": "[tamoxifen]", "values": [{"measurement": "Difference in survival for tamoxifen in comparison to no treatment", "setting": "102 tumours with >90% ER positive cells", "value": "marked difference in survival"}, {"measurement": "Median survival time of deceased patients", "setting": "[1]", "value": 47, "unit": "months*"}, {"measurement": "Mortality rate", "setting": "[1]", "value": 39, "unit": "%"}, {"measurement": "Median survival time of deceased patients", "setting": "[2]", "value": 169, "unit": "months"}, {"measurement": "Mortality rate", "setting": "[2]", "value": 63, "unit": "%"}, {"measurement": "Difference in survival for tamoxifen in comparison to no treatment", "setting": "tumours lacking or expressing low ER and tumours with 10-90% ER positive cells", "value": "did not show any significant difference in survival"}, {"measurement": "Difference in survival between tamoxifen and no treatment", "setting": "tumours with high cyclin D1", "value": "this difference was eliminated; also recorded: little or no effect"}]}
